Reference: patent publication US12264146B2, “Rho kinase inhibitor, method for preparing same and uses thereof” (BEIJING INCREASE INNOVATIVE DRUG CO., LTD., priority 2018, dated 2025)
Structures can show the parent of a compound that is named as a salt.

How the values were obtained:
[1] = system: endothelial nitric oxide synthase (eNOS); experiment: Endothelial nitric oxide synthase (eNOS) in EA.Hy926 endothelial cells, detection kit; type: cell-based; conditions: EA.Hy926 cell supernatant, 24 h
Procedure: Commercially available cytokine kits were used to detect the effects of the compounds of the present application on vascular endothelium-derived contracting factor endothelin, vascular endothelium-derived relaxing factor endothelial nitric oxide synthase, nitric oxide, and prostacyclin factor. The detection was performed according to the kit instructions. When testing the effect of the compound of the present application on cytokines, a normal control group, a fasudil hydrochloride group, and high-, medium- and low-dose groups of the compounds of the present application were set up for testing. The fasudil hydrochloride used in this test example was purchased from Beijing Sihuan Pharmaceutical Co., Ltd., with the SFDA approval number of H20173349. The EA.Hy926 cells used in this test example were purchased from Suzhou Beina Chuanglian Biotechnology Co., Ltd.
Detection conditions: EA.Hy926 cells were inoculated at 1×10^5 […] in a 96-well plate, 100 μL per well, and cultured adherently for 24 hours, then the test compound prepared with DMEM medium was added, the normal control group was added with an equal volume of DMEM medium, then the cells were cultured for 24 hours at 37° C., and then the cell supernatant was taken and placed in an EP tube, and centrifuged at 3000 r/min and 4° C. for 15 minutes, the resulting supernatant was transferred to a new EP tube, diluted 3 times, and detected according to the instruction of eNOs detection kit (purchased from Wuhan Elabscience Biotechnology Co., Ltd., Cat. No. AK0017OCT12013), and the detection results were shown in Table 4.

[2] = Toxicity test on endothelial cells EA.hy926, CCK-8 cell viability; type: cell-based; conditions: human, 1000~0.32 μmol/L, 5-fold dilution, read-out: IC50 of Test compound (cytotoxicity on EA.hy926 cells)
Procedure: In this test example, 31 groups, i.e., Groups 1 to 31, were set, in which Group 1 was a blank control group, Group 2 was a normal control group, Group 3 was a positive control group, and Groups 4 to 31 were test groups of the compounds of the present application. The specific test operation comprised: 100 μL of endothelial cells EA.hy926 (purchased from Suzhou Beina Chuanglian Biotechnology Co., Ltd.) with a density of 5×10^4 was added to each well of a 96-well plate, and transferred to an incubator at 37° C. with 5% CO2 and saturated humidity conditions and cultured for 24 hours, 100 μL of 2× the test compound solution prepared and diluted with DMEM medium containing 10% fetal bovine serum was added, in which the test compound added in the positive control group was Fasudil hydrochloride (purchased from Beijing Sihuan Pharmaceutical Co., Ltd., SFDA approval number H20173349) solution with different concentrations, an equal volume of DMEM medium was added in the blank control group, an equal volume of PBS buffer was added in the normal control group, and a duplicate well was set for each concentration point. After adding the test compound, the culture was continued in the incubator for 24 hours, then 20 μL of CCK-8 detection solution (purchased from Beijing Solarbio Science & Technology Co., Ltd., Cat. No. CA1210) was added to each well, interacted at 37° C. for 2.5 hours, shaken and mixed well, and then the absorbance value at 450 nm was detected.
OD values were detected, and the cell viability values of test groups of different concentrations were calculated according to the cell viability calculation formula as follows: Cell viability=(Atest group−Ablank control)/(Anormal control−Ablank control)*100%
wherein A represented absorbance value at 450 nm.
Prism6.0 was used to obtain the inhibitor concentration-viability curve and to calculate the IC50 of the test compound, the correlation coefficient R^2>0.99; the inhibitor concentration-viability curves of Fasudil hydrochloride, R-YK1601, R-YK1603, R-YK1606, R-YK1607, R-YK1610 were shown in FIGS. 1 to 6, in which the abscissa was the logarithm on base 10 of the concentration of the test compound, and the ordinate was the cell activity (i.e., cell viability).

SMILES | expression of endothelial nitric oxide synthase in endothelial cells: Detection result of test compound at low dose (0.4 μM) [1] [pg/mL] | expression of endothelial nitric oxide synthase in endothelial cells: Detection result of test compound at medium dose (2 μM) [1] [pg/mL] | expression of endothelial nitric oxide synthase in endothelial cells: Detection result of test compound at high dose (10 μM) [1] [pg/mL] | IC50 at 24 h [2] [µM]
C[C@@H]1CNCCCN1S(=O)(=O)c1cccc2c(O)ncc(Cl)c12 [Compound R-YK1606, (R)-4-chloro-5-((2-methyl-1,4-diazacycloheptan-1-yl)sulfonyl)isoquinolin-1-ol] | 2974.79 ± 361.75 | 2400.67 ± 226.73 | 2286.01 ± 95.04 | 181
CCc1cnc(O)c2cccc(S(=O)(=O)N3CCCNC[C@H]3C)c12 [Compound R-YK1607, (R)-4-ethyl-5-((2-methyl-1,4-diazacycloheptan-1-yl)sulfonyl)isoquinolin-1-ol] | 2426.66 ± 220.56 | 2239.70 ± 249.84 | 2298.44 ± 265.33 | 230
O=S(=O)(c1cccc2cnccc12)N1CCCNC[C@H]1C1CC1 [Compound R-YK1608, (R)-5-((2-cyclopropyl-1,4-diazacycloheptan-1-yl)sulfonyl)isoquinoline] | 2697.85 ± 284.81 | 2344.00 ± 293.66 | 2269.45 ± 134.54 | 165
CC(C)[C@@H]1CNCCCN1S(=O)(=O)c1cccc2c(O)nccc12 [Compound R-YK1609, (R)-5-((2-isopropyl-1,4-diazacycloheptan-1-yl)sulfonyl)isoquinolin-1-ol] | 2728.44 ± 257.58 | 2375.91 ± 287.28 | 2235.87 ± 213.65 | 327
CC[C@@H]1CNCCCN1S(=O)(=O)c1cccc2c(OC)nccc12 [Compound R-YK1610, (R)-5-((2-ethyl-1,4-diazacycloheptan-1-yl)sulfonyl)-1-methoxyisoquinoline] | 2632.05 ± 235.87 | 2397.93 ± 280.08 | 2329.68 ± 263.98 | 169
CCCC[C@@H]1CNCCCN1S(=O)(=O)c1cccc2c(O)nccc12 [Compound R-YK1611, (R)-5-((2-butyl-1,4-diazacycloheptan-1-yl)sulfonyl)isoquinolin-1-ol] | 2652.53 ± 279.27 | 2291.59 ± 253.56 | 2195.70 ± 187.16 | 284
COc1nccc2c(S(=O)(=O)N3CCCNC[C@H]3CCC(C)C)cccc12 [Compound R-YK1612, (R)-5-((2-isopentyl-1,4-diazacycloheptan-1-yl)sulfonyl)-1-methoxyisoquinoline] | 2776.58 ± 261.27 | 2456.67 ± 226.85 | 2286.671 ± 195.06 | 176
O=S(=O)(c1cccc2cnccc12)N1CCCNCC1 [Fasudil hydrochloride, reference compound] | 2810.61 ± 13.02 | 2648.66 ± 9.59 | 2636.14 ± 188.26 | 75.7
